Measurements taken from patent US4151300A, “Acetohydroxamic acids” (Laboratoire L. Lafon, priority 1976, dated 1979).

Key:
central nervous system [1] = conditions: prior art; cited from earlier work
mice [2] = assay: inter-group aggressiveness (number of fights); format: in vivo
Method: (§1) The following text summarises a part of the results of the tests which were carried out with the products according to the invention, these products (unless otherwise stated) being administered intraperitoneally, in suspension in a gum solution (gum arabic), in a volume of 20 ml/kg in the case of mice and of 5 ml/kg in the case of rats.
After three weeks' residence in each of the halves of a cage divided by an opaque partition, the mice receive CRL 40,373 thirty minutes before being brought together by withdrawing the partition.
After 18 days' residence on either side of a partition separating their cage in the middle, groups of 3 mice receive CRL 40,385 and are brought together half an hour later by withdrawing the partition, and the number of fights which take place in the course of 15 minutes is noted.

mice [3] = assay: toxicity (isolated mice, intraperitoneal); format: in vivo
Method: as §1

mice [4] = assay: interaction with oxotremorine (temperature, trembling, peripheral cholinergic symptoms); format: in vivo; conditions: mice, i.p.
mice [5] = assay: interaction with reserpine (hypothermia, ptosis); format: in vivo; conditions: i.p.; for reserpine-induced hypothermia: 512 mg/kg
mice [6] = assay: spontaneous motility (actimeter); format: in vivo; conditions: i.p.
Method: as §1
Thirty minutes after having been given CRL 40,373, the mice (6 per dose, 12 comparison animals) are placed in an actimeter, where their motility is recorded for half an hour.
Thirty minutes after having been given CRL 40,385, the mice are placed in actimeters where their motility is recorded for half an hour.

mice [7] = assay: motility reduced by habituation to a cage (residual motility); format: in vivo; conditions: i.p.
Method: as §1
Mice which have remained for 18 hours in the actimeters are given CRL 40,373. They are immediately replaced in their cages and, after a period of half an hour, their motility is recorded for 30 minutes (6 animals per dose, 12 comparison animals).
After remaining for 18 hours in the actimeters, the mice receive CRL 40,385. Immediately afterwards they are replaced in their cage and half an hour afterwards the recording of the motility starts and is continued for 30 minutes.

mice [8] = assay: motility reduced by hypoxia treatment (motor recovery); format: in vivo; conditions: for motor recovery after hypoxia/anoxia by pressure reduction: mice, i.p.
rats = assay: interaction with amphetamine (stereotypies in rats); format: in vivo; conditions: i.p., 256 mg/kg
Method: as §1
30 minutes after the administration of CRL 40,373, amphetamine is injected intraperitoneally at a dose of 2 mg/kg.
Thirty minutes after the administration of CRL 40,385 the rats are given an intraperitoneal injection of 2 mg/kg of amphetamine (6 animals per dose).

central nervous system [9] = assay: psychopharmacological study / behaviour; format: in vivo, mice; conditions: high dose (256 mg/kg)

Question: Which usefulness in therapy (central nervous system [1]) does the source give for `O=C(C[S+]([O-])C(c1ccccc1)c1ccccc1)NO` (stereo not drawn) [β-benzhydrylsulphinyl-acetohydroxamic acid] here?
Answer: of interest in the treatment of the central nervous system

Question: With `O=C(CN1C(=O)NC(c2ccc(Cl)cc2)(c2ccc(Cl)cc2)C1=O)NO` [CRL 40,468, 3-(5,5-di-p-chlorophenyl-hydantoinyl)-acetohydroxamic acid] as the compound, how does the aggressiveness (mice [2]; mice, i.p., large/high dose) read?
Answer: reduces the number of fights

Question: And the mortality (mice [3]; mouse, in vivo)?
Answer: found dead 24 hours after the injection

Question: What about the mortality (mice [3]; mouse, in vivo, ip, 512 mg/kg) of the same compound?
Answer: no mortality is observed

Question: What about the symptoms / behaviour (mice [3]; mouse, in vivo, ip, 512 mg/kg) of the same compound?
Answer: the symptoms are comparable

Question: With `CCC1(c2ccccc2)NC(=O)N(CC(=O)NO)C1=O` (centres unmarked) [CRL 40,450, 3-(5-Ethyl-5-phenyl-hydantoinyl)-acetohydroxamic acid] as the compound, how does the inter-group aggressiveness (mice [2]; mice, i.p., 512 and 256 mg/kg) read?
Answer: reduces the inter-group aggressiveness in mice

Question: What about the “temperature (oxotremorine-induced hypothermia)” value (mice [4]; 512 mg/kg) of the same compound?
Answer: aggravates the hypothermia induced by reserpine and by oxotremorine

Question: And the oxotremorine-induced trembling (mice [4]; high dose (512 mg/kg))?
Answer: reduces the intensity of the trembling movements due to oxotremorine

Question: And the “LD-O (maximum non-lethal dose)” value (mice [3]; mice, i.p.)?
Answer: greater than 1,024 mg/kg

Question: And the reserpine-induced hypothermia (mice [5])?
Answer: aggravates the hypothermia induced by reserpine

Question: What about the spontaneous motility (mice [6]; mice, 512 mg/kg) of the same compound?
Answer: reduction in the spontaneous motility of mice

Question: With `O=C(CCC[S+]([O-])c1ccc(F)cc1)NO` (centres unmarked) [4-(p-fluorophenylsulphinyl)-butyrohydroxamic acid] as the compound, how does the usefulness in therapy (central nervous system [1]) read?
Answer: of interest in the treatment of the central nervous system

Question: With `O=C(Cc1nc2ccccc2n1-c1ccccc1)NO` [CRL 40,490, 2-(1-Phenyl-benzimidazolyl)-acetohydroxamic acid] as the compound, how does the “LD-O (maximum non-lethal dose)” value (mice [3]; mice, i.p.) read?
Answer: greater than 1,024 mg/kg

Question: Which usefulness in therapy (central nervous system [1]) does the source give for `O=C(CCC[S+]([O-])c1ccccc1)NO` (centres unmarked) [4-phenylsulphinylbutyrohydroxamic acid] here?
Answer: of interest in the treatment of the central nervous system

Question: With `O=C(CC(=O)N(C1CCCCC1)C1CCCCC1)NO` [CRL 40,446, N,N-(Dicyclohexyl)-carbamoylacetohydroxamic acid] as the compound, how does the inter-group aggressiveness (mice [2]; mice, i.p.) read?
Answer: reduces, to a moderate degree, inter-group aggressiveness in mice

Question: And the “motility reduced by habituation to the cage” value (“motility reduced” below) (mice [7])?
Answer: does not cause any resumption in the motor activity of mice

Question: And the mortality (mice [3]; mouse, in vivo)?
Answer: does not cause any mortality whatsoever

Question: What about the reserpine-induced ptosis (mice [5]) of the same compound?
Answer: ptosis induced by reserpine is not affected

Question: And the reserpine-induced hypothermia (mice [5])?
Answer: partially antagonises hypothermia induced by reserpine

Question: And the “motor recovery after hypoxia/anoxia by pressure reduction” value (mice [8])?
Answer: does not cause any resumption in the motor activity of mice

Question: What about the spontaneous motility (mice [6]; mice, 128 and 512 mg/kg) of the same compound?
Answer: reduces the spontaneous motility in mice

Question: For `O=C(CCC[S+]([O-])c1ccc(Cl)cc1)NO` (centres unmarked) [4-(p-chlorophenylsulphinyl)-butyrohydroxamic acid], which usefulness in therapy (central nervous system [1]) is on record?
Answer: of interest in the treatment of the central nervous system

Question: With `O=C(CC[S+]([O-])C(c1ccccc1)c1ccccc1)NO` (centres unmarked) [3-benzhydrylsulphinyl-propionohydroxamic acid] as the compound, how does the usefulness in therapy (central nervous system [1]) read?
Answer: of interest in the treatment of the central nervous system

Question: Which inter-group aggressiveness (mice [2]; mice, i.p.) does the source give for `O=C(CNC(=O)Nc1ccccc1)NO` [CRL 40,513, 5-Phenylureidoacetohydroxamic acid] here?
Answer: anti-aggressive effect

Question: And the “LD-O (maximum non-lethal dose)” value (mice [3]; mouse, in vivo, ip)?
Answer: greater than 1,024 mg/kg

Question: And the symptoms / behaviour (mice [3]; mouse, in vivo, ip)?
Answer: sedation and hypothermia

Question: And the “motor recovery after hypoxia/anoxia by pressure reduction” value (mice [8])?
Answer: improvement in the motor recovery of mice

Question: With `O=C(CC[S+]([O-])c1ccc(F)cc1)NO` (centres unmarked) [3-(p-fluorophenylsulphinyl)-propionohydroxamic acid] as the compound, how does the usefulness in therapy (central nervous system [1]) read?
Answer: of interest in the treatment of the central nervous system

Question: Which “LD-O (maximum non-lethal dose)” value (mice [3]; mice, i.p.) does the source give for `O=C(C[S+]([O-])Cc1cccc2ccccc12)NO` (stereo not drawn) [CRL 40,475, α-Naphthylmethylene-sulphinyl-acetohydroxamic acid] here?
Answer: greater than 1,024 mg/kg

Question: For `O=C(CC(O)COc1cccc2ccccc12)NO` (stereo not drawn) [4-α-naphthyloxy-3-hydroxybutyrohydroxamic acid], which usefulness in therapy (central nervous system [1]) is on record?
Answer: inactive in therapy

Question: With `O=C(CC(=O)Nc1ccc(Cl)c(Cl)c1)NO` [CRL 40,491, 3,4-Dichlorophenylcarbamoylacetohydroxamic acid] as the compound, how does the inter-group aggressiveness (mice [2]; mice, i.p., 256 mg/kg) read?
Answer: reduces the inter-group aggressiveness of mice

Question: And the “motility reduced” value (mice [7]; 256 mg/kg)?
Answer: moderate resumption of the activity of mice habituated to their cage

Question: What about the “LD-O (maximum non-lethal dose)” value (mice [3]; mice, i.p.) of the same compound?
Answer: greater than 1,024 mg/kg

Question: What about the mortality (mice [3]; mice, i.p., 1,024 mg/kg, 24 hours after administration) of the same compound?
Answer: no mortality 24 hours after administration

Question: What about the spontaneous motility (mice [6]; mice, 512 mg/kg) of the same compound?
Answer: reduction in the spontaneous motility of mice

Question: And the amphetamine-induced stereotypies (rats)?
Answer: reduces the intensity of amphetamine-induced stereotypies

Question: Which results are given for `O=C(CC(=O)Nc1ccc(Cl)cc1)NO` [CRL 40,464, N-(4-Chlorophenyl)-carbamoyl-acetohydroxamic acid]?
Answer: oxotremorine-induced trembling (mice [4]): moderately reduces the intensity of the trembling movements; temperature (oxotremorine-induced hypothermia) (mice [4]): aggravates the hypothermia due to oxotremorine; motility reduced by habituation to the cage (mice [7]; 128 mg/kg): causes a resumption of the motor activity in animals habituated to their cage; LD-O (maximum non-lethal dose) (mice [3]; mice, i.p.): greater than 1,024 mg/kg; spontaneous motility (mice [6]): reduces the spontaneous motility in mice; amphetamine-induced stereotypies (rats): reduces the intensity of amphetamine-induced stereotypies

Question: With `O=C(C[S+]([O-])Cc1ccc(Cl)cc1)NO` (stereo not drawn) [CRL 40,411, α-(Chlorobenzylsulphinyl)-acetohydroxamic acid] as the compound, how does the “LD-O (maximum non-lethal dose)” value (mice [3]; mice, i.p.) read?
Answer: greater than 1,024 mg/kg

Question: Which inter-group aggressiveness (mice [2]; mice, i.p.) does the source give for `CCC(C(=O)NO)C(=O)N(c1ccccc1)c1ccccc1` (centres unmarked) [CRL 40,439, 2-(N,N-Diphenylcarbamoyl)-butyrohydroxamic acid] here?
Answer: moderately reduces the inter-group aggressiveness in mice

Question: What about the oxotremorine-induced trembling (mice [4]) of the same compound?
Answer: moderately reduces the intensity of the trembling movements due to oxotremorine

Question: And the “temperature (oxotremorine-induced hypothermia)” value (mice [4]; 512 mg/kg)?
Answer: increases, at a dose of 512 mg/kg, the hypothermia-inducing effect of reserpine and of oxotremorine

Question: And the “motility reduced” value (mice [7]; 128 mg/kg)?
Answer: causes a resumption of the motor activity in animals habituated to their cage

Question: And the “LD-O (maximum non-lethal dose)” value (mice [3]; mice, i.p.)?
Answer: greater than 1,024 mg/kg

Question: And the symptoms / behaviour (mice [3]; mouse, in vivo, ip, 128 mg/kg)?
Answer: none of these symptoms is observed

Question: And the reserpine-induced ptosis (mice [5])?
Answer: does not affect reserpine-induced ptosis

Question: What about the reserpine-induced hypothermia (mice [5]) of the same compound?
Answer: increases, at a dose of 512 mg/kg, the hypothermia-inducing effect of reserpine

Question: And the “motor recovery after hypoxia/anoxia by pressure reduction” value (mice [8])?
Answer: does not improve the motor recovery

Question: And the spontaneous motility (mice [6]; mice, 512 mg/kg)?
Answer: very great reduction in the spontaneous motility

Question: Which anti-aggressive effect (mice [2]; very low doses (8 and 16 mg/kg)) does the source give for `COc1cc(NC(=O)CC(=O)NO)cc(OC)c1OC` [CRL 40,509, 3,4,5-Trimethoxyphenyl-carbamoyl-acetohydroxamic acid] here?
Answer: an effect of the anti-aggressive type

Question: And the anti-anoxia effect (mice [8]; 64 and 128 mg/kg)?
Answer: an effect of the anti-anoxia type

Question: What about the sedation (central nervous system [9]) of the same compound?
Answer: sedation

Question: With `O=C(CCC[S+]([O-])C(c1ccccc1)c1ccccc1)NO` (centres unmarked) [4-benzhydrylsulphinyl-butyrohydroxamic acid] as the compound, how does the usefulness in therapy (central nervous system [1]) read?
Answer: of interest in the treatment of the central nervous system

Question: Which “LD-O (maximum non-lethal dose)” value (mice [3]; mouse, in vivo, ip) does the source give for `CC(C(=O)NO)N1C(=O)NC(c2ccccc2)(c2ccccc2)C1=O` (centres unmarked) [CRL 40,447, 2-[3-(5,5-Diphenylhydantoinyl)]-propionohydroxamic acid] here?
Answer: greater than 1,024 mg/kg

Question: And the spontaneous motility (mice [6]; mice, 512 mg/kg)?
Answer: reduces the spontaneous motility of mice
